Data taken from patent publication US11553712B2 (priority 2010, dated 2023).
Read-outs that look alike come from different tables or passages of the source. Marks after values point to notes of the source that are not given here.

Legend:
BVDV = details: 45% (v/v) PG eluate, 20°C
TGEV = details: 45% (v/v) PG eluate, 20°C
PRV = details: eluate with 45% PG
[1] = BVDV Run 1, T = 0 min Load Sample, Standard titration
[2] = BVDV Run 1, T = 5 min, Standard titration
[3] = BVDV Run 1, T = 15 min, Standard titration
[4] = BVDV Run 1, T = 60 min, Standard titration
[5] = BVDV Run 1, T = 180 min, Standard titration
[6] = BVDV Run 1, T = 360 min, Standard titration
[7] = BVDV Run 2, T = 0 min Load Sample, Standard titration
[8] = BVDV Run 2, T = 5 min, Standard titration
[9] = BVDV Run 2, T = 15 min, Standard titration
[10] = BVDV Run 2, T = 60 min, Standard titration
[11] = BVDV Run 2, T = 180 min, Standard titration
[12] = TGEV Run 1, T = 0 min Load Sample, Standard titration
[13] = TGEV Run 1, T = 5 min, Standard titration
[14] = TGEV Run 1, T = 15 min, Standard titration
[15] = TGEV Run 1, T = 60 min, Standard titration
[16] = TGEV Run 1, T = 180 min, Standard titration
[17] = TGEV Run 1, T = 360 min, Standard titration
[18] = TGEV Run 2, T = 0 min Load Sample, Standard titration
[19] = TGEV Run 2, T = 5 min, Standard titration
[20] = TGEV Run 2, T = 15 min, Standard titration
[21] = TGEV Run 2, T = 60 min, Standard titration
[22] = TGEV Run 2, T = 180 min, 1LVP (96 wells)
[23] = TGEV Run 2, T = 360 min, 1 LVP (96 wells)
[24] = T = 6 h (+SD) (Standard titration)

Substance: propane-1,2-diol [PG]
- Clearance Factor (BVDV; [1]): 0.43 log
- Log10TICD50 (total viral load) (BVDV; [1]): 5.85 Log10TICD50
- Titre (BVDV; [1]): 3.12 log10TCID50/ml
- Clearance Factor (BVDV; [2]): 1.65 log
- Log10TICD50 (total viral load) (BVDV; [2]): 4.63 Log10TICD50
- Titre (BVDV; [2]): 1.9 log10TCID50/ml
- Reduction Factor (BVDV; BVDV Run 1, T = 5 min vs T0, Standard titration): 1.22 log
- Clearance Factor (BVDV; [3]): 1.3 log
- Log10TICD50 (total viral load) (BVDV; [3]): 4.98 Log10TICD50
- Titre (BVDV; [3]): 2.25 log10TCID50/ml
- Reduction Factor (BVDV; BVDV Run 1, T = 15 min vs T0, Standard titration): 0.87 log
- Clearance Factor (BVDV; [4]): 1.3 log
- Log10TICD50 (total viral load) (BVDV; [4]): 4.98 Log10TICD50
- Titre (BVDV; [4]): 2.25 log10TCID50/ml
- Reduction Factor (BVDV; BVDV Run 1, T = 60 min vs T0, Standard titration): 0.87 log
- Clearance Factor (BVDV; [5]): 1.3 log
- Log10TICD50 (total viral load) (BVDV; [5]): 4.98 Log10TICD50
- Titre (BVDV; [5]): 2.25 log10TCID50/ml
- Reduction Factor (BVDV; BVDV Run 1, T = 180 min vs T0, Standard titration): 0.87 log
- Clearance Factor (BVDV; [6]): 2.75 log
- Log10TICD50 (total viral load) (BVDV; [6]): 3.53 Log10TICD50
- Titre (BVDV; [6]): 0.8 log10TCID50/ml
- Reduction Factor (BVDV; BVDV Run 1, T = 360 min vs T0, Standard titration): >4.32 log
- Clearance Factor (BVDV; [7]): 0.44 log
- Log10TICD50 (total viral load) (BVDV; [7]): 5.76 Log10TICD50
- Titre (BVDV; [7]): 3.03 log10TCID50/ml
- Clearance Factor (BVDV; [8]): 1.88 log
- Log10TICD50 (total viral load) (BVDV; [8]): 4.32 Log10TICD50
- Titre (BVDV; [8]): 1.59 log10TCID50/ml
- Reduction Factor (BVDV; BVDV Run 2, T = 5 min vs T0, Standard titration): 1.44 log
- Clearance Factor (BVDV; [9]): 2.15 log
- Log10TICD50 (total viral load) (BVDV; [9]): 4.05 Log10TICD50
- Titre (BVDV; [9]): 1.32 log10TCID50/ml
- Reduction Factor (BVDV; BVDV Run 2, T = 15 min vs T0, Standard titration): 1.71 log
- Clearance Factor (BVDV; [10]): 1.88 log
- Log10TICD50 (total viral load) (BVDV; [10]): 4.32 Log10TICD50
- Titre (BVDV; [10]): 1.59 log10TCID50/ml
- Reduction Factor (BVDV; BVDV Run 2, T = 60 min vs T0, Standard titration): 1.44 log
- Clearance Factor (BVDV; [11]): >2.67 log
- Log10TICD50 (total viral load) (BVDV; [11]): <3.53 Log10TICD50
- Titre (BVDV; [11]): <0.8 log10TCID50/ml
- Reduction Factor (BVDV; BVDV Run 2, T = 180 min vs T0, Standard titration): >2.23 log
- Clearance Factor (BVDV; BVDV Run 2, T = 360 min, 1 LVP): >3.59 log
- Log10TICD50 (total viral load) (BVDV; BVDV Run 2, T = 360 min, 1 LVP): <2.61 Log10TICD50
- Titre (BVDV; BVDV Run 2, T = 360 min, 1 LVP): <−0.12 log10TCID50/ml
- Reduction Factor (BVDV; BVDV Run 2, T = 360 min vs T0, 1 LVP): >3.15 log
- Clearance Factor (TGEV; [12]): 0.07 log
- Log10TICD50 (total viral load) (TGEV; [12]): 7.38 Log10TICD50
- Titre (TGEV; [12]): 5.12 log10TCID50/ml
- Clearance Factor (TGEV; [13]): 1.24 log
- Log10TICD50 (total viral load) (TGEV; [13]): 6.21 Log10TICD50
- Titre (TGEV; [13]): 3.95 log10TCID50/ml
- Reduction Factor (TGEV; TGEV Run 1, T = 5 min vs T0, Standard titration): 1.17 log
- Clearance Factor (TGEV; [14]): 2.41 log
- Log10TICD50 (total viral load) (TGEV; [14]): 5.04 Log10TICD50
- Titre (TGEV; [14]): 2.78 log10TCID50/ml
- Reduction Factor (TGEV; TGEV Run 1, T = 15 min vs T0, Standard titration): 2.34 log
- Clearance Factor (TGEV; [15]): 3.87 log
- Log10TICD50 (total viral load) (TGEV; [15]): 3.58 Log10TICD50
- Titre (TGEV; [15]): 1.32 log10TCID50/ml
- Reduction Factor (TGEV; TGEV Run 1, T = 60 min vs T0, Standard titration): 3.8 log
- Clearance Factor (TGEV; [16]): 4.39 log
- Log10TICD50 (total viral load) (TGEV; [16]): 3.06 Log10TICD50
- Titre (TGEV; [16]): 0.8 log10TCID50/ml
- Reduction Factor (TGEV; TGEV Run 1, T = 180 min vs T0, Standard titration): 4.32 log
- Clearance Factor (TGEV; [17]): >4.39 log
- Log10TICD50 (total viral load) (TGEV; [17]): <3.06 Log10TICD50
- Titre (TGEV; [17]): <0.8 log10TCID50/ml
- Reduction Factor (TGEV; TGEV Run 1, T = 360 min vs T0, Standard titration): >4.32 log
- Clearance Factor (TGEV; [18]): 0.08 log
- Log10TICD50 (total viral load) (TGEV; [18]): 7.54 Log10TICD50
- Titre (TGEV; [18]): 5.28 log10TCID50/ml
- Clearance Factor (TGEV; [19]): 1.08 log
- Log10TICD50 (total viral load) (TGEV; [19]): 6.54 Log10TICD50
- Titre (TGEV; [19]): 4.28 log10TCID50/ml
- Reduction Factor (TGEV; TGEV Run 2, T = 5 min vs T0, Standard titration): 1 log
- Clearance Factor (TGEV; [20]): 2.16 log
- Log10TICD50 (total viral load) (TGEV; [20]): 5.46 Log10TICD50
- Titre (TGEV; [20]): 3.2 log10TCID50/ml
- Reduction Factor (TGEV; TGEV Run 2, T = 15 min vs T0, Standard titration): 2.08 log
- Clearance Factor (TGEV; [21]): 4.56 log
- Log10TICD50 (total viral load) (TGEV; [21]): 3.06 Log10TICD50
- Titre (TGEV; [21]): 0.8 log10TCID50/ml
- Reduction Factor (TGEV; TGEV Run 2, T = 60 min vs T0, Standard titration): 4.48 log
- Clearance Factor (TGEV; [22]): 5.48 log
- Log10TICD50 (total viral load) (TGEV; [22]): 2.14 Log10TICD50
- Titre (TGEV; [22]): −0.12 log10TCID50/ml
- Reduction Factor (TGEV; TGEV Run 2, T = 180 min vs T0, 1LVP (96 wells)): 5.4 log
- Clearance Factor (TGEV; [23]): >5.48 log
- Log10TICD50 (total viral load) (TGEV; [23]): <2.14 Log10TICD50
- Titre (TGEV; [23]): <−0.12 log10TCID50/ml
- Reduction Factor (TGEV; TGEV Run 2, T = 360 min vs T0, 1 LVP (96 wells)): >5.40 log
- Titer (PRV; Control T = 0 h (w/o SD)): 2.17 ± 0.30 TCID50/ml
- Viral Load (PRV; Control T = 0 h (w/o SD)): 4.47 ± 0.30 log10
- Titer (PRV; Control T = 6 h (w/o SD)): ≤0.78* TCID50/ml
- Viral Load (PRV; Control T = 6 h (w/o SD)): ≤3.08 log10
- Titer (PRV; T = 0 h (+SD)): ≤1.48* TCID50/ml
- Viral Load (PRV; T = 0 h (+SD)): ≤3.78 log10
- Titer (PRV; T = 1 h (+SD)): ≤1.48* TCID50/ml
- Viral Load (PRV; T = 1 h (+SD)): ≤3.78 log10
- Titer (PRV; T = 3 h (+SD)): ≤1.48* TCID50/ml
- Viral Load (PRV; T = 3 h (+SD)): ≤3.78 log10
- Titer (PRV; [24]): ≤1.48* TCID50/ml
- Viral Load (PRV; [24]): ≤3.78 log10
